Test results: patent publication US12496294B2, “Methods for improving exercise performance and endurance thereof” (NANJING NUTRABUILDING BIO-TECH CO., LTD., priority 2020, dated 2025)

How the values were obtained:
red blood cells = assay: ROS, 2,3-DPG and T-AOC in red blood cells after treadmill exhaustion test (commercial kits); type: in vivo, mice; details: for T-AOC level in the red blood cell: FIG. 9
Description: (§1) Prior to the experiment, all mice were acclimatized on a treadmill by running at 15% incline and at 10 m/min for two days. After the 2-day acclimatization, 40 mice were randomly divided into four groups as followings (10 for each group): Control group (normal diet supplemented with distilled water), Dihydroberberine (high) group (normal diet supplemented with dihydroberberine 26 mg/kg daily), Dihydroberberine (medium) group: (normal diet supplemented with dihydroberberine 19.5 mg/kg daily), Dihydroberberine (low) group (normal diet supplemented with dihydroberberine 13 mg/kg daily). Each group was fed on a normal diet, other than that, three experimental groups were supplemented with dihydroberberine daily for two consecutive months, while the control group was only supplemented with distilled water at the same time. Exercise endurance of the mice was evaluated by treadmill running. At the beginning of the formal experiment, mice were placed on treadmill, running at 10 m/min for 20 minutes, and then the running speed was increased by 2 m/min every 2nd minutes. End point occurs if the mouse touched the shock grid of the treadmill three times or on the treadmill for 5 consecutive seconds without attempting to reengage the treadmill. At the end point, the running distance, highest running speed, total running time of the mice were recorded^[7].
(§2) After the treadmill exhaustion test, blood samples were collected from the mice into heparin tubes. By centrifugation at 4500 rpm for 15 minutes, plasma was separated from the top layer of the whole blood and red blood cells were also separated from the lower layer of the blood. The levels of superoxide dismutase (SOD), catalase (CAT), and malondialdehyde (MDA) in the plasma were determined using commercially available kits.
The reactive oxygen species (ROS), 2,3-diphosphoglycerate (2,3-DPG), and total antioxidant capacity (T-AOC) in red blood cells were also determined using commercially available kits.

AMPK = AMPK level in red blood cells after treadmill exhaustion test; type: in vivo, mice; details: group supplemented with high dose of DHB (26 mg/kg daily); FIG. 10
Description: as §1, with “At the beginning of the formal experiment, mice were placed on treadmill, running at 10 m/min for 20 minutes, and then the running speed was increased by 2 m/min every 2nd minutes. End point occurs if the mouse touched the shock grid of the treadmill three times or on the treadmill for 5 consecutive seconds without attempting to reengage the treadmill.” left out
After the treadmill exhaustion test, blood samples were collected from the mice into heparin tubes. […] The levels of superoxide dismutase (SOD), catalase (CAT), and malondialdehyde (MDA) in the plasma were determined using commercially available kits. […]

mice [1] = assay: SOD, CAT and MDA levels in plasma after treadmill exhaustion test (commercial kits); type: in vivo; details: for SOD level in plasma: FIG. 4; for CAT level in plasma: FIG. 5; for MDA level in plasma: FIG. 6
Description: as §1, §2

mice [2] = assay: Treadmill running exercise endurance test in mice after DHB supplementation; type: in vivo; details: DHB 13, 19.5 or 26 mg/kg daily for two consecutive months, vs control group
Description: as §1
FIGS. 1-3 show the exercise performance and endurance of mice after supplemented with DHB for two consecutive months.

[3] = high-dose group (26 mg/kg daily), p<0.001
[4] = groups with administration of DHB (13, 19.5, 26 mg/kg daily, two months)

COc1ccc2c(c1OC)CN1CCc3cc4c(cc3C1=C2)OCO4 [DHB, dihydroberberine] was tested, and the “ROS level in the red blood cell” value (red blood cells; groups supplemented with DHB (13, 19.5, 26 mg/kg daily, two months), FIG. 7) was “increased”, the “2,3-DPG level in the red blood cell” value (red blood cells; groups supplemented with DHB (13, 19.5, 26 mg/kg daily, two months), FIG. 8) was “increased” and the “T-AOC level in the red blood cell” value (red blood cells; groups supplemented with DHB (13, 19.5, 26 mg/kg daily, two months)) was “increased”. For the same molecule, the “T-AOC level in the red blood cell” value (red blood cells; [3]) was “increased significantly”, the “AMPK level in red blood cells” value (AMPK) was “decreased slightly” and the “SOD level in plasma” value (mice [1]; groups supplemented with DHB (13, 19.5, 26 mg/kg daily, two months) vs control) was “higher than the control group”. The “CAT level in plasma” value (mice [1]; [4]) was “increased”, the “MDA level in plasma” value (mice [1]; [4]) was “increased” and the “CAT level in plasma” value (mice [1]; high dose group (26 mg/kg daily), p<0.05) was “increased significantly”. The “SOD level in plasma” value (mice [1]; high-dose DHB group (26 mg/kg daily), p<0.01) was “increased significantly”, the “MDA level in plasma” value (mice [1]; [3]) was “increased significantly” and the “CAT level in plasma” value (mice [1]; middle dose group (19.5 mg/kg daily), p<0.05) was “increased significantly”. For the same molecule, the running distance (mice [2]; FIG. 1) was “enhanced endurance and better performance”, the highest running speed (mice [2]; FIG. 2) was “enhanced endurance and better performance” and the running time (mice [2]; FIG. 3) was “enhanced endurance and better performance”.
